Experimental findings from ChEMBL document CHEMBL1201862, “PubChem BioAssay data set” (2004) are described below.

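Five concentrations, 48 hours, 96-well plates. GI50: concentration for 50% inhibition of growth.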 The source made the active and inactive calls. Cut-off read from the data, not from the text of the source: active = GI50 up to about 1.1 µM and inactive = higher.

Some test systems named below: EKVX; SR; UACC-257; RPMI-8226; NCI-H226; HCT-116; 786-0; CCRF-CEM; SK-MEL-2; SW-620; LOX IMVI; TK-10; A549; HT-29; SK-MEL-5; OVCAR-8; SF-295; A498.
Assay in all cases: NCI tumour cell line growth inhibition, 48 h

Take `CC(c1ccc2c(c1)CCC1C2CC2OC23CC=CC(=O)[C@]13C)C1C[C@]2(C)O[C@]2(C)[C@H](O)O1` (some centres not stated): the GI50 was 5.48 µM (inactive) with EKVX; 13.1 µM (inactive) with SR; 11.1 µM (inactive) in the test with UACC-257; 2 µM (inactive) with RPMI-8226; 12.1 µM (inactive) with NCI-H226; 0.256 µM (active) in the test on HCT-116. Also, the GI50 with 786-0 was > 100 µM (inactive); with CCRF-CEM, 15.4 µM (inactive); in the test with SK-MEL-2, 52.2 µM (inactive); in the test on SW-620, 25.3 µM (inactive); with LOX IMVI, 20.1 µM (inactive); with TK-10, > 100 µM (inactive). Besides, the GI50 in the test with A549 is 16.1 µM (inactive); in the test on HT-29, 47.1 µM (inactive); in the test with SK-MEL-5, 11 µM (inactive); with OVCAR-8, 37 µM (inactive).
Take `CN(C)CCn1cnc2ncccc2c1=O`: the GI50 with EKVX, in the test on SR, in the test on NCI-H226, in the test with HCT-116, with 786-0 and in the test with CCRF-CEM was > 100 µM (inactive) each time. For the same molecule, the GI50 in the test with SF-295, in the test with SK-MEL-2, with SW-620, in the test on LOX IMVI, in the test with TK-10 and with A549 was > 100 µM (inactive) each time. Moreover, the GI50 in the test with HT-29, in the test with SK-MEL-5 and in the test on OVCAR-8 was > 100 µM (inactive) each time.
As to `O=C1NC(=O)C2C1C1C=C3c4ccccc4N(c4ccccc4)C32[C@H]2C(=O)NC(=O)[C@@H]12` (some centres not stated), the GI50 in the test on EKVX, in the test with UACC-257, with A498, in the test with RPMI-8226, with NCI-H226 and in the test with HCT-116 was > 100 µM (inactive) in each case. In addition, the GI50 with 786-0, in the test with CCRF-CEM, with SF-295, in the test on SK-MEL-2, in the test on SW-620 and in the test with LOX IMVI was > 100 µM (inactive) in each case. Further, the GI50 in the test on TK-10, in the test on A549, with HT-29, in the test with SK-MEL-5 and in the test on OVCAR-8 was > 100 µM (inactive) throughout.
Consider `CCc1c(OC(C)=O)c2c(NC3OC(COC(C)=O)C(OC(C)=O)C(OC(C)=O)C3OC(C)=O)nc(SC)nc2oc1=O` (configuration not stated), for which the GI50 in the test on EKVX, with UACC-257, in the test on A498, in the test on RPMI-8226, in the test on NCI-H226 and with HCT-116 was > 100 µM (inactive) in each case. Besides, the GI50 in the test on 786-0, in the test with CCRF-CEM, in the test with SF-295, in the test on SK-MEL-2, in the test on SW-620 and in the test on LOX IMVI was > 100 µM (inactive) throughout. Moreover, the GI50 with TK-10, with A549, in the test on HT-29, in the test with SK-MEL-5 and with OVCAR-8 was > 100 µM (inactive) throughout.
`CC(C)=CC(=O)Cc1nc2ccc([N+](=O)[O-])cc2[nH]c1=O`: the GI50 in the test with EKVX was > 100 µM (inactive); in the test on UACC-257 it was > 100 µM (inactive); in the test on A498 it was > 100 µM (inactive); in the test with RPMI-8226, 17.3 µM (inactive); in the test with NCI-H226, > 100 µM (inactive); in the test with HCT-116 it was > 100 µM (inactive). The GI50 in the test on 786-0, in the test on SF-295, in the test with SK-MEL-2, in the test on SW-620, with LOX IMVI and in the test on TK-10 was > 100 µM (inactive) in each case. For the same molecule, the GI50 in the test on A549 is > 100 µM (inactive); in the test on HT-29 it was > 100 µM (inactive); with SK-MEL-5, 22.6 µM (inactive); in the test on OVCAR-8, > 100 µM (inactive).
Turning to `CC(C)(C)C1=CC(CCC(=O)Nc2ccccc2[N+](=O)[O-])=NC(S)N1` (configuration not stated), the GI50 with EKVX, in the test with SR, in the test with UACC-257, with NCI-H226, in the test on HCT-116 and in the test on 786-0 was > 100 µM (inactive) throughout. For the same molecule, the GI50 in the test on CCRF-CEM, in the test on SF-295, in the test with SK-MEL-2, with SW-620, with LOX IMVI and in the test on TK-10 was > 100 µM (inactive) in each case. Also, the GI50 in the test with A549, in the test on HT-29, with SK-MEL-5 and with OVCAR-8 was > 100 µM (inactive) each time.
As for `O=C(NC1CCCC1=O)c1ccccc1` (configuration not stated), the GI50 with EKVX is > 100 µM (inactive); in the test with SR, > 100 µM (inactive); in the test on UACC-257, > 100 µM (inactive); in the test on A498 it was 13.7 µM (inactive); with NCI-H226, 98.9 µM (inactive); in the test on HCT-116 it was > 100 µM (inactive). For the same molecule, the GI50 in the test with 786-0, with CCRF-CEM, in the test on SF-295, with SK-MEL-2, with SW-620 and in the test on TK-10 was > 100 µM (inactive) in each case. Also, the GI50 in the test with A549, in the test on HT-29, with SK-MEL-5 and with OVCAR-8 was > 100 µM (inactive) in each case.
In the case of `COc1ccc(/C=C2\CCc3ccccc3C2=O)cc1OC`, the GI50 with EKVX is 51.8 µM (inactive); in the test on UACC-257 it was 18.9 µM (inactive); with A498, 46.6 µM (inactive); in the test with RPMI-8226, 13.9 µM (inactive); in the test on HCT-116, 17.9 µM (inactive); with 786-0, 34.5 µM (inactive). For the same molecule, the GI50 is 24.8 µM (inactive) in the test on CCRF-CEM; 32.9 µM (inactive) in the test with SF-295; 31.1 µM (inactive) in the test with SK-MEL-2; 28.4 µM (inactive) with SW-620; 32.6 µM (inactive) in the test with TK-10; 38.2 µM (inactive) in the test with A549. Moreover, the figures for the GI50 in the test on HT-29, in the test on SK-MEL-5 and in the test with OVCAR-8 were 27.8 µM (inactive), 15.9 µM (inactive) and 32.1 µM (inactive), respectively.
As to `Nc1nc(=O)n([C@@H]2CC[C@H](CO)O2)cc1F`, the GI50 in the test with EKVX, in the test with UACC-257, in the test on RPMI-8226, in the test with NCI-H226, in the test with 786-0 and in the test with CCRF-CEM was > 100 µM (inactive) in each case. Besides, the GI50 with SF-295, with SK-MEL-2, with SW-620, with LOX IMVI, in the test on TK-10 and in the test on A549 was > 100 µM (inactive) in each case. Also, the GI50 with HT-29, with SK-MEL-5 and with OVCAR-8 was > 100 µM (inactive) throughout.
Consider `Cc1ccc(N2C(=O)/C(=C/c3ccc(N(CCC#N)CCC#N)cc3C)N=C2c2cc([N+](=O)[O-])ccc2Cl)cc1`, for which the GI50 with SR was 58.2 µM (inactive); in the test with UACC-257 it was > 100 µM (inactive); with A498, > 100 µM (inactive); in the test on RPMI-8226 it was > 100 µM (inactive); in the test on NCI-H226, > 100 µM (inactive); in the test with HCT-116, > 100 µM (inactive). Further, the GI50 with 786-0, in the test on CCRF-CEM, in the test on SF-295, with SK-MEL-2, with SW-620 and in the test with TK-10 was > 100 µM (inactive) each time. In addition, the GI50 in the test on A549, with HT-29, in the test on SK-MEL-5 and in the test with OVCAR-8 was > 100 µM (inactive) in each case.
As to `O=C(O)c1cc(Cl)cc(NC(=O)C(Cl)Cl)c1Cl`, the GI50 with EKVX, in the test with UACC-257, in the test with A498, in the test with RPMI-8226, in the test on NCI-H226 and with HCT-116 was > 100 µM (inactive) in each case. The GI50 in the test on 786-0, with CCRF-CEM, with SF-295, in the test with SK-MEL-2, in the test on SW-620 and in the test with LOX IMVI was > 100 µM (inactive) throughout. Besides, the GI50 with TK-10, in the test with A549, with HT-29, in the test on SK-MEL-5 and with OVCAR-8 was > 100 µM (inactive) throughout.
For `Cc1cc2c(c(C(N)=O)c1C)-c1cccc(Cl)c1C2=O`, the GI50 in the test on EKVX, in the test with UACC-257, with A498, with RPMI-8226, in the test on HCT-116 and with 786-0 was > 100 µM (inactive) in each case. Besides, the GI50 in the test with CCRF-CEM, in the test with SF-295, in the test with SK-MEL-2, in the test on SW-620, in the test on LOX IMVI and with TK-10 was > 100 µM (inactive) each time. Further, the GI50 in the test with A549, in the test with HT-29, with SK-MEL-5 and with OVCAR-8 was > 100 µM (inactive) throughout.
